Data as given in PubChem BioAssay AID1259411 (Chemical Carcinogenesis Research Information System (CCRIS), 2018).
The source made the active and inactive calls. The rule behind the calls is not given here.

Test system: rodent carcinogenicity bioassays, tumor incidence
Experiment: CCRIS carcinogenicity studies
Method in brief: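 Archive of carcinogenicity, mutagenicity, tumor promotion and tumor inhibition results drawn from journals, NCI reports and other sources, expert-reviewed; covers 1985-2011 and is no longer updated.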

## Nc1c(Cl)c(Cl)nc(C(=O)O)c1Cl
Species: MOUSE, Strain/Sex: B6C3F1/FEMALE, Route: ORAL, Dose: 0, 2531, 5062 PPM IN DIET FOR 80 WK (STUDY DURATION: 90 WK), Dose: 0, 2531, 5062 PPM IN DIET FOR 80 WK (STUDY DURATION: 90 WK)
  carcinogen call: inactive; negative
Species: MOUSE, Strain/Sex: B6C3F1/MALE, Route: ORAL, Dose: 0, 2531, 5062 PPM IN DIET FOR 80 WK (STUDY DURATION: 90 WK), Dose: 0, 2531, 5062 PPM IN DIET FOR 80 WK (STUDY DURATION: 90 WK)
  carcinogen call: inactive; negative
Species: RAT, Strain/Sex: F344/FEMALE, Route: ORAL, Dose: 0, 20, 60, 200 MG/KG/D OF TECHNICAL GRADE PICLORAM IN FEED FOR 2 YR (STUDY DURATION: 2 YR), Dose: 0, 20, 60, 200 MG/KG/D OF TECHNICAL GRADE PICLORAM IN FEED FOR 2 YR (STUDY DURATION: 2 YR)
  carcinogen call: inactive; negative
Species: RAT, Strain/Sex: F344/MALE, Route: ORAL, Dose: 0, 20, 60, 200 MG/KG/D OF TECHNICAL GRADE PICLORAM IN FEED FOR 2 YR (STUDY DURATION: 2 YR), Dose: 0, 20, 60, 200 MG/KG/D OF TECHNICAL GRADE PICLORAM IN FEED FOR 2 YR (STUDY DURATION: 2 YR)
  carcinogen call: inactive; negative
Species: RAT, Strain/Sex: OSBORNE-MENDEL/FEMALE, Route: ORAL, Dose: 0, 7437, 14875 PPM IN DIET FOR 80 WK (STUDY DURATION: 113 WK), Dose: 0, 7437, 14875 PPM IN DIET FOR 80 WK (STUDY DURATION: 113 WK), Tumor Site: Type of Lesion: LIVER: NEOPLASTIC NODULE
  carcinogen call: equivocal
Species: RAT, Strain/Sex: OSBORNE-MENDEL/MALE, Route: ORAL, Dose: 0, 7437, 14875 PPM IN DIET FOR 80 WK (STUDY DURATION: 113 WK), Dose: 0, 7437, 14875 PPM IN DIET FOR 80 WK (STUDY DURATION: 113 WK)
  carcinogen call: inactive; negative

## COc1cccc2c1C(=O)c1c(O)c3c(c(O)c1C2=O)C[C@@](O)(C(C)=O)C[C@@H]3O[C@H]1C[C@H](N)[C@H](O)[C@H](C)O1
Species: RAT, Strain/Sex: SPRAGUE-DAWLEY/FEMALE, Route: INTRAVENOUS, Dose: 0, 10 MG/KG IN SALINE ONCE (STUDY DURATION: 244 D) (STUDY DURATION: 244 D), Tumor Site: Type of Lesion: MAMMARY GLAND: TUMOR
  carcinogen call: active; positive
Species: RAT, Strain/Sex: SPRAGUE-DAWLEY/FEMALE, Route: INTRAVENOUS, Dose: 0, 10 MG/KG IN SALINE SOLUTION ONCE (STUDY DURATION: 1 YR), Tumor Site: Type of Lesion: MAMMARY GLAND: ADENOCARCINOMA
  carcinogen call: active; positive
Species: RAT, Strain/Sex: SPRAGUE-DAWLEY/FEMALE, Route: SUBCUTANEOUS, Dose: 0, 2, 4, 8 UG IN 100 µL SALINE INTO THORACIC AND ABDOMINAL MAMMARY GLANDS ONCE (STUDY DURATION: 6.5 MO), Dose: 0, 2, 4, 8 UG IN 100 µL SALINE INTO THORACIC AND ABDOMINAL MAMMARY GLANDS ONCE (STUDY DURATION: 6.5 MO), Tumor Site: Type of Lesion: MAMMARY GLAND: TUMOR
  carcinogen call: active; positive
Species: RAT, Strain/Sex: SPRAGUE-DAWLEY/MALE, Route: INTRAVENOUS, Dose: 0, 10 MG/KG IN SALINE SOLUTION ONCE (STUDY DURATION: 1 YR), Tumor Site: Type of Lesion: MAMMARY GLAND: ADENOCARCINOMA
  carcinogen call: active; positive

## Nc1nc(-c2ccc([N+](=O)[O-])o2)cs1
Species: RAT, Strain/Sex: F344/FEMALE, Route: ORAL, Dose: 0.166% IN DIET FOR 52 WK, Tumor Site: Type of Lesion: FORESTOMACH: PAPILLOMA, CARCINOMA, URINARY BLADDER: PAPILLOMA, CARCINOMA
  carcinogen call: active; positive
Species: RAT, Strain/Sex: F344/MALE,FEMALE, Route: SUBCUTANEOUS, Dose: 10 MG/KG IN DMSO:WATER 1/WK FOR 8 WK, THEN 1.4 MG/RAT 1/WK FOR 46 WK, Tumor Site: Type of Lesion: INJECTION SITE: SARCOMA
  carcinogen call: active; positive

## S=P(N1CC1)(N1CC1)N1CC1
Species: MOUSE, Strain/Sex: B6C3F1/FEMALE, Route: INTRAPERITONEAL, Dose: 0, 1.15, 2.3 MG/KG 3/WK FOR 43-52 WK (STUDY DURATION: 86-87 WK), Dose: 0, 1.15, 2.3 MG/KG 3/WK FOR 43-52 WK (STUDY DURATION: 86-87 WK), Tumor Site: Type of Lesion: HEMATOPOIETIC SYSTEM (LEUKEMIA): LYMPHOCYTIC LEUKEMIA, LYMPHATIC SYSTEM: LYMPHOMA
  carcinogen call: active; positive
Species: MOUSE, Strain/Sex: B6C3F1/MALE, Route: INTRAPERITONEAL, Dose: 0, 1.15, 2.3 MG/KG 3/WK FOR 52 WK (STUDY DURATION: 56-87 WK), Dose: 0, 1.15, 2.3 MG/KG 3/WK FOR 52 WK (STUDY DURATION: 56-87 WK), Tumor Site: Type of Lesion: INTEGUMENTARY SYSTEM (SKIN): SQUAMOUS CELL CARCINOMA, HEMATOPOIETIC SYSTEM (LEUKEMIA), LYMPHATIC SYSTEM: LYMPHOMA, EAR (, Tumor Site: Type of Lesion: INTEGUMENTARY SYSTEM (SKIN): SQUAMOUS CELL CARCINOMA, HEMATOPOIETIC SYSTEM (LEUKEMIA), LYMPHATIC SYSTEM: LYMPHOMA, EAR (
  carcinogen call: active; positive
Species: RAT, Strain/Sex: SPRAGUE-DAWLEY/FEMALE, Route: INTRAPERITONEAL, Dose: 0, 0.7, 1.4, 2.8 MG/KG 3/WK FOR 21-52 WK (STUDY DURATION: 21-87 WK), Dose: 0, 0.7, 1.4, 2.8 MG/KG 3/WK FOR 21-52 WK (STUDY DURATION: 21-87 WK), Tumor Site: Type of Lesion: MAMMARY GLAND: ADENOCARCINOMA, PITUITARY GLAND: CHROMOPHOBE ADENOMA
  carcinogen call: active; positive
Species: RAT, Strain/Sex: SPRAGUE-DAWLEY/MALE, Route: INTRAPERITONEAL, Dose: 0, 0.7, 1.4, 2.8 MG/KG 3/WK FOR 19-52 WK (STUDY DURATION: 19-87 WK), Dose: 0, 0.7, 1.4, 2.8 MG/KG 3/WK FOR 19-52 WK (STUDY DURATION: 19-87 WK), Tumor Site: Type of Lesion: INTEGUMENTARY SYSTEM (SKIN): SQUAMOUS CELL CARCINOMA, INTEGUMENTARY SYSTEM (SUBCUTANEOUS TISSUE): SARCOMA, HEMATOPOIETIC, Tumor Site: Type of Lesion: INTEGUMENTARY SYSTEM (SKIN): SQUAMOUS CELL CARCINOMA, INTEGUMENTARY SYSTEM (SUBCUTANEOUS TISSUE): SARCOMA, HEMATOPOIETIC
  carcinogen call: active; positive

## C=C/C=C\C1C2/C=C/CC(=O)O[C@@]34C[C@@H](C)[C@]5(O)C6C=C(C)C(=O)[C@@]6(O)CC(CO)=C[C@H]5[C@@H]3[C@@]4(C)COC(=O)C2C2C(/C=C/C=C/C=C/CCC)C12 (stereo partly specified)
Species: MOUSE, Strain/Sex: CD-1/FEMALE (15), Route: DERMAL, Dose: 0, 2 UG IN 0.1 ML OF METHANOL 2/WK FOR 16 WK BEGINNING 1 WK POST CARCINOGEN DOSE THEN 5 UG 2/WK FOR 13 WK (STUDY DURATIO
  carcinogen call: inactive; negative

## CC(I)C1OCC(CO)O1 (stereo unspecified)
Species: MOUSE, Strain/Sex: B6C3F1/FEMALE, Route: GAVAGE, Dose: 0, 62, 125 MG/KG IN WATER 5 D/WK FOR 103 WK (STUDY DURATION: 106 WK), Dose: 0, 62, 125 MG/KG IN WATER 5 D/WK FOR 103 WK (STUDY DURATION: 106 WK), Tumor Site: Type of Lesion: FORESTOMACH: SQUAMOUS CELL PAPILLOMA, ANTERIOR PITUTARY GLAND: ADENOMA, HARDERIAN GLAND: ADENOMA, ADENOMA OR CARCINOMA, Tumor Site: Type of Lesion: FORESTOMACH: SQUAMOUS CELL PAPILLOMA, ANTERIOR PITUTARY GLAND: ADENOMA, HARDERIAN GLAND: ADENOMA, ADENOMA OR CARCINOMA
  carcinogen call: active; positive
Species: MOUSE, Strain/Sex: B6C3F1/MALE, Route: GAVAGE, Dose: 0, 125, 250 MG/KG IN WATER 5 D/WK FOR 103 WK (STUDY DURATION: 106 WK), Dose: 0, 125, 250 MG/KG IN WATER 5 D/WK FOR 103 WK (STUDY DURATION: 106 WK)
  carcinogen call: inactive; negative
Species: RAT, Strain/Sex: F344/FEMALE, Route: GAVAGE, Dose: 0, 62, 125 MG/KG IN WATER 5 D/WK FOR 103 WK (STUDY DURATION: 105 WK), Dose: 0, 62, 125 MG/KG IN WATER 5 D/WK FOR 103 WK (STUDY DURATION: 105 WK)
  carcinogen call: inactive; negative
Species: RAT, Strain/Sex: F344/MALE, Route: GAVAGE, Dose: 0, 125, 250 MG/KG IN WATER 5 D/WK FOR 103 WK (STUDY DURATION: 105 WK), Dose: 0, 125, 250 MG/KG IN WATER 5 D/WK FOR 103 WK (STUDY DURATION: 105 WK), Tumor Site: Type of Lesion: HEMATOPOIETIC SYSTEM: MONONUCLEAR CELL LEUKEMIA, THYROID GLAND: FOLLICULAR CELL CARCINOMA
  carcinogen call: active; positive
